Results from ChEMBL document CHEMBL5512629, “Insight into small-molecule inhibitors targeting extracellular nucleotide pyrophosphatase/phosphodiesterase1 for potential multiple human diseases” (Eur J Med Chem, 2024).
Each block holds one compound with its values, some of them ahead of it.

Columns and labels:
[1] = target: T1, Ectonucleotide pyrophosphatase/phosphodiesterase family member 1 (Homo sapiens, UniProt P22413); assay: Binding affinity to human ENPP1 assessed as inhibition constant
T1 sequence (P22413 whole entry): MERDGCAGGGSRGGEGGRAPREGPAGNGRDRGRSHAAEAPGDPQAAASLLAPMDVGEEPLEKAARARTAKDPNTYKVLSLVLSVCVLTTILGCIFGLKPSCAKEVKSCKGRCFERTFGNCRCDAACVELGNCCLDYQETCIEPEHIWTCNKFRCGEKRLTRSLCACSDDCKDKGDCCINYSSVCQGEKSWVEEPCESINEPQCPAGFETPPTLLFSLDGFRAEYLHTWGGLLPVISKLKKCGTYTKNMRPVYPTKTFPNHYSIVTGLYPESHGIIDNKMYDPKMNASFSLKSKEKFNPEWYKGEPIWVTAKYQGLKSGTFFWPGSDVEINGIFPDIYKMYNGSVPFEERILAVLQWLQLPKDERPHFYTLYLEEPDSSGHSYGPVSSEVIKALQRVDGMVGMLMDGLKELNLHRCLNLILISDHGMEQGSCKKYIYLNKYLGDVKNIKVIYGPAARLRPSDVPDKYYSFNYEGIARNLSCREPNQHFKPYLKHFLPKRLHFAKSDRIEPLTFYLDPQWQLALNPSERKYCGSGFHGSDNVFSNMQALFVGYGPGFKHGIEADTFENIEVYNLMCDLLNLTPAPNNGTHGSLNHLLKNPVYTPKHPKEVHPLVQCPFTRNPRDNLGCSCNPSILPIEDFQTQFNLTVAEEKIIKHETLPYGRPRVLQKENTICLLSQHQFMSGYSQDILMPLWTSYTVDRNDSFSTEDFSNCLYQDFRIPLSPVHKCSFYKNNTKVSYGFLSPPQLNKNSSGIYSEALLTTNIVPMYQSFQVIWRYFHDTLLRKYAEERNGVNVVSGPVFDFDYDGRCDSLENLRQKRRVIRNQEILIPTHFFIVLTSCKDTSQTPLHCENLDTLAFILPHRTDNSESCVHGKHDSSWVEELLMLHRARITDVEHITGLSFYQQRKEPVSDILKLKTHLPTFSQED

[2] = target: T1, Ectonucleotide pyrophosphatase/phosphodiesterase family member 1; assay: Inhibition of human ENPP1
[3] = target: T1, Ectonucleotide pyrophosphatase/phosphodiesterase family member 1; assay: Inhibition of ENPP1 (unknown origin)
[4] = Oral bioavailability in mouse; type: ADME, organism-based; conditions: in vivo
[5] = target: T1, Ectonucleotide pyrophosphatase/phosphodiesterase family member 1; assay: Binding affinity to ENPP1 (unknown origin) assessed as inhibition constant

SMILES: COc1cc2cc(-n3cc(C)c4ccccc43)n3c4ccccc4c(C)c3c2cc1OC
IC50 [2]: 0.36 µM

SMILES: COc1ccc(NC(=O)CSc2nc3c(C)c(C#N)ncc3[nH]2)cc1O
IC50 [3]: 2.06 µM

SMILES: COc1cccc2c(N3CCC(CCP(=O)(O)O)CC3)ncnc12
Ki [1]: < 0.002 µM

SMILES: Nc1ncnc2c1ncn2[C@@H]1O[C@H](COP(=O)(O)CP(=O)(O)OP(O)(O)=S)[C@@H](O)[C@H]1O
Ki [5]: 20 µM

Results, then the compound that gave them:

Ki [1]: 0.0269 µM
SMILES: O=C(/C=C/c1ccc(O)c(O)c1)O[C@H](Cc1ccc(O)c(O)c1)C(=O)O [ROSMARINIC ACID]

bioavailability [4]: 65%
SMILES: Cn1nc(Cc2ccc(NS(N)(=O)=O)cc2)c2ccccc2c1=O

IC50 [3]: 260 µM
SMILES: Cc1nc2ncnn2c(N(C)C)c1Cc1cccc(N)c1
